Measured values from PMC5218480 (PLoS ONE, 2017).

System: MV-4-11 cells
Experiment: Gene expression microarray analysis (Affymetrix PrimeView) and GSEA
Format: cell-based, human
Set-up: RFU PODN (11730768_x_at) / Fold change /veh PODN (11730768_x_at) / RFU LINC00158 (11744669_a_at) / Fold change /veh LINC00158 (11744669_a_at) / RFU DUSP10 (11751237_a_at) / Fold change /veh DUSP10 (11751237_a_at) / RFU ID3 (11757404_x_at) / Fold change /veh ID3 (11757404_x_at) / RFU PLEKHG5 (11737974_s_at) / Fold change /veh PLEKHG5 (11737974_s_at) / RFU LRRC4B (11730491_at) / Fold change /veh LRRC4B (11730491_at) / RFU GIMAP4 (11747438_a_at) / Fold change /veh GIMAP4 (11747438_a_at) / RFU KRT8 (11758183_x_at) / Fold change /veh KRT8 (11758183_x_at) / RFU CNN1 (11734310_a_at) / Fold change /veh CNN1 (11734310_a_at) / RFU VPS37D (11726825_at) / Fold change /veh VPS37D (11726825_at) / RFU C10orf10 (11716522_x_at) / Fold change /veh C10orf10 (11716522_x_at) / RFU KIR2DL2 /// KIR2DL4 /// KIR2DL5A /// KIR2DL5B /// KIR2DS1 /// KIR2DS2 /// KIR2DS3 /// KIR2DS4 /// KIR3DL3 /// KIR3DL3 /// KIR3DS1 (11738374_at) / Fold change /veh KIR2DL2 /// KIR2DL4 /// KIR2DL5A /// KIR2DL5B /// KIR2DS1 /// KIR2DS2 /// KIR2DS3 /// KIR2DS4 /// KIR3DL3 /// KIR3DL3 /// KIR3DS1 (11738374_at) / RFU C1QL1 (11718748_at) / Fold change /veh C1QL1 (11718748_at) / RFU TMPRSS4 (11747572_a_at) / Fold change /veh TMPRSS4 (11747572_a_at) / RFU HAMP (11756126_x_at) / Fold change /veh HAMP (11756126_x_at) / RFU RNFT2 (11725882_a_at) / Fold change /veh RNFT2 (11725882_a_at) / RFU NR4A2 (11747474_a_at) / Fold change /veh NR4A2 (11747474_a_at) / RFU ABCC12 (11746883_a_at) / Fold change /veh ABCC12 (11746883_a_at) / RFU TMEM136 (11760407_x_at) / Fold change /veh TMEM136 (11760407_x_at) / RFU CLDN22 /// WWC2 (11732394_at) / Fold change /veh CLDN22 /// WWC2 (11732394_at) / RFU HLA-DPB1 (11760878_x_at) / Fold change /veh HLA-DPB1 (11760878_x_at) / RFU SPINT1 (11716480_a_at) / Fold change /veh SPINT1 (11716480_a_at) / RFU GAP43 (11754022_s_at) / Fold change /veh GAP43 (11754022_s_at) / RFU A4GNT (11735810_at) / Fold change /veh A4GNT (11735810_at) / RFU PRB3 (11715151_x_at) / Fold change /veh PRB3 (11715151_x_at) / RFU TUBB4B (11761932_at) / Fold change /veh TUBB4B (11761932_at) / RFU CAPN14 (11732068_a_at) / Fold change /veh CAPN14 (11732068_a_at) / RFU TMCC2 (11721928_a_at) / Fold change /veh TMCC2 (11721928_a_at) / RFU IRGQ (11745062_a_at) / Fold change /veh IRGQ (11745062_a_at) / RFU FAM174B (11720279_a_at) / Fold change /veh FAM174B (11720279_a_at) / RFU TMPRSS4 (11748680_a_at) / Fold change /veh TMPRSS4 (11748680_a_at) / RFU FAM212B (11763350_a_at) / Fold change /veh FAM212B (11763350_a_at) / RFU PLEKHG5 (11743358_a_at) / Fold change /veh PLEKHG5 (11743358_a_at) / RFU ZSCAN30 (11745921_a_at) / Fold change /veh ZSCAN30 (11745921_a_at) / RFU CMKLR1 (11741424_a_at) / Fold change /veh CMKLR1 (11741424_a_at) / RFU LOC101060620 /// MAPK8IP1 (11723275_at) / Fold change /veh LOC101060620 /// MAPK8IP1 (11723275_at) / RFU SPTSSB (11747773_x_at) / Fold change /veh SPTSSB (11747773_x_at) / RFU PRSS12 (11739890_at) / Fold change /veh PRSS12 (11739890_at) / RFU BIN1 (11741810_x_at) / Fold change /veh BIN1 (11741810_x_at) / RFU WNT11 (11732464_a_at) / Fold change /veh WNT11 (11732464_a_at) / RFU C10orf10 (11716521_a_at) / Fold change /veh C10orf10 (11716521_a_at) / RFU C5orf56 (11738089_at) / Fold change /veh C5orf56 (11738089_at) / RFU CYB561 (11721691_x_at) / Fold change /veh CYB561 (11721691_x_at) / RFU ANKRD19P (11752326_a_at) / Fold change /veh ANKRD19P (11752326_a_at) / RFU OR2T12 /// OR2T33 /// OR2T8 (11738714_s_at) / Fold change /veh OR2T12 /// OR2T33 /// OR2T8 (11738714_s_at) / RFU VCAN (11748164_a_at) / Fold change /veh VCAN (11748164_a_at) / RFU JSRP1 (11732532_at) / Fold change /veh JSRP1 (11732532_at) / RFU KRTAP10-11 (11738290_x_at) / Fold change /veh KRTAP10-11 (11738290_x_at) / RFU MYO3A (11730013_a_at) / Fold change /veh MYO3A (11730013_a_at) / RFU EBF3 (11725865_a_at) / Fold change /veh EBF3 (11725865_a_at) / RFU CAMK2N1 (11719241_x_at) / Fold change /veh CAMK2N1 (11719241_x_at) / RFU C5orf56 (11738088_a_at) / Fold change /veh C5orf56 (11738088_a_at) / RFU OLFML3 (11715873_a_at) / Fold change /veh OLFML3 (11715873_a_at) / RFU LOC100653217 /// NTM (11731650_a_at) / Fold change /veh LOC100653217 /// NTM (11731650_a_at) / RFU MAPK11 (11762145_a_at) / Fold change /veh MAPK11 (11762145_a_at) / RFU FIZ1 (11724087_x_at) / Fold change /veh FIZ1 (11724087_x_at) / RFU OASL (11726364_x_at) / Fold change /veh OASL (11726364_x_at) / RFU SOX15 (11748057_x_at) / Fold change /veh SOX15 (11748057_x_at) / RFU CD79A (11719716_a_at) / Fold change /veh CD79A (11719716_a_at) / RFU HIST1H1D (11736915_at) / Fold change /veh HIST1H1D (11736915_at) / RFU CASKIN2 (11723855_a_at) / Fold change /veh CASKIN2 (11723855_a_at) / RFU LOC730098 (11760151_x_at) / Fold change /veh LOC730098 (11760151_x_at) / RFU OR4N2 (11742367_at) / Fold change /veh OR4N2 (11742367_at) / RFU PRRT2 (11749266_a_at) / Fold change /veh PRRT2 (11749266_a_at) / RFU SNX32 (11753110_a_at) / Fold change /veh SNX32 (11753110_a_at) / RFU CDHR5 (11726645_a_at) / Fold change /veh CDHR5 (11726645_a_at) / RFU RCAN1 (11760418_a_at) / Fold change /veh RCAN1 (11760418_a_at) / RFU FAM167A (11723789_a_at) / Fold change /veh FAM167A (11723789_a_at) / RFU FAM26E (11764081_at) / Fold change /veh FAM26E (11764081_at) / RFU ISYNA1 (11749810_s_at) / Fold change /veh ISYNA1 (11749810_s_at) / RFU ACY1 (11761880_at) / Fold change /veh ACY1 (11761880_at) / RFU 11764098_at / Fold change /veh 11764098_at / RFU SAMD14 (11745864_x_at) / Fold change /veh SAMD14 (11745864_x_at) / RFU NPB (11741838_a_at) / Fold change /veh NPB (11741838_a_at) / RFU TMPRSS6 (11731388_a_at) / Fold change /veh TMPRSS6 (11731388_a_at) / RFU KRTAP10-2 (11738614_at) / Fold change /veh KRTAP10-2 (11738614_at) / RFU ARHGAP8 /// PRR5-ARHGAP8 (11727945_x_at) / Fold change /veh ARHGAP8 /// PRR5-ARHGAP8 (11727945_x_at) / RFU KRTAP5-7 /// NADSYN1 (11734609_at) / Fold change /veh KRTAP5-7 /// NADSYN1 (11734609_at) / RFU RASL12 (11751679_a_at) / Fold change /veh RASL12 (11751679_a_at) / RFU CDKN2B (11736163_a_at) / Fold change /veh CDKN2B (11736163_a_at) / RFU PRF1 (11729649_at) / Fold change /veh PRF1 (11729649_at) / RFU, ZNF638 /// ZNF638-IT1 / Fold change vs veh, ZNF638 /// ZNF638-IT1 / RFU, PANK3 / Fold change vs veh, PANK3 / RFU, SH3YL1 / Fold change vs veh, SH3YL1 / RFU, ZEB2 / Fold change vs veh, ZEB2 / RFU, NRIP1 / Fold change vs veh, NRIP1 / RFU, PTTG1IP / Fold change vs veh, PTTG1IP / RFU, CAPN2 / Fold change vs veh, CAPN2 / RFU, MED14 / Fold change vs veh, MED14 / RFU, SNORA58 / Fold change vs veh, SNORA58 / RFU, C1orf63 / Fold change vs veh, C1orf63 / RFU, LRRFIP1 / Fold change vs veh, LRRFIP1 / RFU, NDUFAF7 / Fold change vs veh, NDUFAF7 / RFU, SLC12A2 / Fold change vs veh, SLC12A2 / RFU, IBTK / Fold change vs veh, IBTK / RFU, ESF1 / Fold change vs veh, ESF1 / Fold change vs veh, TMEM50B / RFU, TAOK1 / Fold change vs veh, TAOK1 / RFU, ACBD3 / Fold change vs veh, ACBD3 / RFU, TMA16 / Fold change vs veh, TMA16 / RFU, RWDD3 / Fold change vs veh, RWDD3 / RFU, BCAT1 / Fold change vs veh, BCAT1 / RFU, EDEM3 / Fold change vs veh, EDEM3 / RFU, TMEM33 / Fold change vs veh, TMEM33 / RFU, WDR75 / Fold change vs veh, WDR75 / RFU, AHCTF1 / Fold change vs veh, AHCTF1 / RFU, TFRC / Fold change vs veh, TFRC / RFU, ZDHHC17 / Fold change vs veh, ZDHHC17 / RFU, NOM1 / Fold change vs veh, NOM1 / RFU, ARL8B / Fold change vs veh, ARL8B / RFU, ZBTB11 / Fold change vs veh, ZBTB11 / RFU, TAMM41 / Fold change vs veh, TAMM41 / RFU, KIAA1704 /// LOC100996395 / Fold change vs veh, KIAA1704 /// LOC100996395 / RFU, ING1 / Fold change vs veh, ING1 / RFU, TRMT61B / Fold change vs veh, TRMT61B / RFU, FUBP3 / Fold change vs veh, FUBP3 / RFU, TP53 / Fold change vs veh, TP53 / RFU, TNKS2 / Fold change vs veh, TNKS2 / RFU, ZFP14 / Fold change vs veh, ZFP14 / RFU, ACTR2 / Fold change vs veh, ACTR2 / RFU, PPP3R1 / Fold change vs veh, PPP3R1 / RFU, PIK3R1 / Fold change vs veh, PIK3R1 / RFU, HNRNPA1 / Fold change vs veh, HNRNPA1 / RFU, RNF170 / Fold change vs veh, RNF170 / RFU, ZNF28 / Fold change vs veh, ZNF28 / RFU, RNGTT / Fold change vs veh, RNGTT / RFU, OGT / Fold change vs veh, OGT / RFU, BRD1 / Fold change vs veh, BRD1 / RFU, MARS / Fold change vs veh, MARS / RFU, ZNF655 / Fold change vs veh, ZNF655 / RFU, FAHD1 / Fold change vs veh, FAHD1 / RFU, BDP1 / Fold change vs veh, BDP1 / RFU, LRRCC1 / Fold change vs veh, LRRCC1 / RFU, ARID1A / Fold change vs veh, ARID1A / RFU, ZNF146 / Fold change vs veh, ZNF146 / RFU, ZNF330 / Fold change vs veh, ZNF330 / RFU, GPN3 / Fold change vs veh, GPN3 / RFU, C9orf123 / Fold change vs veh, C9orf123 / RFU, N4BP2L2 / Fold change vs veh, N4BP2L2 / RFU, ARFIP1 / Fold change vs veh, ARFIP1 / RFU, FAM179B / Fold change vs veh, FAM179B / RFU, BCL10 / Fold change vs veh, BCL10 / RFU, UHRF1BP1L / Fold change vs veh, UHRF1BP1L / RFU, BET1 / Fold change vs veh, BET1 / RFU, CNOT2 / Fold change vs veh, CNOT2 / RFU, ZNF268 / Fold change vs veh, ZNF268 / Fold change vs veh, ZNF507 / RFU, DGCR2 / Fold change vs veh, DGCR2 / RFU, WDSUB1 / Fold change vs veh, WDSUB1 / Fold change vs veh, HSP90B1 /// MIR3652 / RFU, ADSS / Fold change vs veh, ADSS / RFU, GK / Fold change vs veh, GK / RFU, ZNF148 / Fold change vs veh, ZNF148 / RFU, TAF9 / Fold change vs veh, TAF9 / RFU, SLC1A5 / Fold change vs veh, SLC1A5 / RFU, SLMO2 / Fold change vs veh, SLMO2 / RFU, ABCC4 / Fold change vs veh, ABCC4 / RFU, LOC101060439 /// RAP1B / Fold change vs veh, LOC101060439 /// RAP1B / RFU, RFX7 / Fold change vs veh, RFX7 / RFU, GTPBP10 / Fold change vs veh, GTPBP10 / RFU, CNEP1R1 / Fold change vs veh, CNEP1R1 / RFU, BIVM-ERCC5 /// ERCC5 / Fold change vs veh, BIVM-ERCC5 /// ERCC5 / RFU, ILF3 / Fold change vs veh, ILF3 / RFU 11762660_at / Fold change /veh 11762660_at / RFU VCAN (11757783_s_at) / Fold change /veh VCAN (11757783_s_at) / RFU DDX43 (11728927_at) / Fold change /veh DDX43 (11728927_at) / RFU KRT8 (11758188_x_at) / Fold change /veh KRT8 (11758188_x_at) / RFU NKD1 (11759106_at) / Fold change /veh NKD1 (11759106_at) / RFU SRD5A1 (11742802_a_at) / Fold change /veh SRD5A1 (11742802_a_at) / RFU TPSAB1 /// TPSB2 (11721975_s_at) / Fold change /veh TPSAB1 /// TPSB2 (11721975_s_at) / RFU GSTM3 (11746129_a_at) / Fold change /veh GSTM3 (11746129_a_at) / RFU IL23R (11737362_x_at) / Fold change /veh IL23R (11737362_x_at) / RFU TMEM51 (11727254_a_at) / Fold change /veh TMEM51 (11727254_a_at) / RFU PIWIL2 (11732686_x_at) / Fold change /veh PIWIL2 (11732686_x_at) / RFU ORM1 (11744905_x_at) / Fold change /veh ORM1 (11744905_x_at) / RFU CCDC152 (11743942_at) / Fold change /veh CCDC152 (11743942_at) / RFU ECM1 (11717891_a_at) / Fold change /veh ECM1 (11717891_a_at) / RFU IL23R (11748794_a_at) / Fold change /veh IL23R (11748794_a_at) / RFU TNFAIP8L3 (11732012_x_at) / Fold change /veh TNFAIP8L3 (11732012_x_at) / RFU MBOAT4 (11741988_at) / Fold change /veh MBOAT4 (11741988_at) / RFU 11764193_at / Fold change /veh 11764193_at / RFU TMEM53 (11763286_at) / Fold change /veh TMEM53 (11763286_at) / RFU MAGEB2 (11727129_at) / Fold change /veh MAGEB2 (11727129_at) / RFU TMEM200A (11744735_a_at) / Fold change /veh TMEM200A (11744735_a_at) / RFU CCDC152 (11751479_a_at) / Fold change /veh CCDC152 (11751479_a_at) / RFU FAM211A (11726209_a_at) / Fold change /veh FAM211A (11726209_a_at) / RFU RGS16 (11746705_a_at) / Fold change /veh RGS16 (11746705_a_at) / RFU VCAN (11755009_s_at) / Fold change /veh VCAN (11755009_s_at) / RFU RHOB (11743442_s_at) / Fold change /veh RHOB (11743442_s_at) / RFU RGS16 (11720943_a_at) / Fold change /veh RGS16 (11720943_a_at) / RFU RGS16 (11720944_at) / Fold change /veh RGS16 (11720944_at) / RFU, VPS4B / Fold change vs veh, VPS4B / RFU, CREB1 / Fold change vs veh, CREB1 / RFU, DNAJC13 / Fold change vs veh, DNAJC13 / RFU, GNAQ / Fold change vs veh, GNAQ / RFU, CDK5R1 / Fold change vs veh, CDK5R1 / RFU, ZRANB3 / Fold change vs veh, ZRANB3 / RFU, CUL4A / Fold change vs veh, CUL4A / RFU, CCNY / Fold change vs veh, CCNY / RFU, UFL1 / Fold change vs veh, UFL1 / RFU, COG3 / Fold change vs veh, COG3 / RFU, DIAPH2 / Fold change vs veh, DIAPH2 / RFU, SKA2 / Fold change vs veh, SKA2 / RFU, AFF3 / Fold change vs veh, AFF3 / RFU, LMF1 / Fold change vs veh, LMF1 / RFU, IPO11 / Fold change vs veh, IPO11 / RFU, DFFB / Fold change vs veh, DFFB / RFU, FOXP1 / Fold change vs veh, FOXP1 / RFU, CARD8 / Fold change vs veh, CARD8 / RFU, STRN3 / Fold change vs veh, STRN3 / RFU, ADK / Fold change vs veh, ADK / RFU, RASSF2 / Fold change vs veh, RASSF2 / RFU, WIPF1 / Fold change vs veh, WIPF1 / RFU, LARP1B / Fold change vs veh, LARP1B / RFU, RASA1 / Fold change vs veh, RASA1 / RFU, RB1 / Fold change vs veh, RB1 / RFU, PPFIA1 / Fold change vs veh, PPFIA1 / RFU, MAT2A / Fold change vs veh, MAT2A / RFU, CCT5 / Fold change vs veh, CCT5 / RFU, WDR92 / Fold change vs veh, WDR92 / RFU, CUX1 / Fold change vs veh, CUX1 / RFU, TTC7A / Fold change vs veh, TTC7A / RFU, TMEM135 / Fold change vs veh, TMEM135 / RFU, DEPTOR / Fold change vs veh, DEPTOR / RFU, CPM / Fold change vs veh, CPM / RFU, DNAJB6 / Fold change vs veh, DNAJB6 / RFU, CACNA2D3 / Fold change vs veh, CACNA2D3 / RFU, DTX4 / Fold change vs veh, DTX4 / RFU, TFCP2 / Fold change vs veh, TFCP2 / RFU, GMCL1 /// GMCL1P1 / Fold change vs veh, GMCL1 /// GMCL1P1 / RFU, AEBP2 / Fold change vs veh, AEBP2 / RFU, SNHG1 /// SNORD22 /// SNORD25 /// SNORD26 /// SNORD27 /// SNORD28 /// SNORD29 /// SNORD31 / Fold change vs veh, SNHG1 /// SNORD22 /// SNORD25 /// SNORD26 /// SNORD27 /// SNORD28 /// SNORD29 /// SNORD31 / Fold change (Aza/veh), C12orf56 (ProbeSet 11735607_a_at) / Fold change (ACY-1035/veh), C12orf56 (ProbeSet 11735607_a_at) / Fold change (Aza/veh), FGFR1OP (ProbeSet 11751329_s_at) / Fold change (ACY-1035/veh), FGFR1OP (ProbeSet 11751329_s_at) / Fold change (Aza/veh), VPS36 (ProbeSet 11739960_a_at) / Fold change (ACY-1035/veh), VPS36 (ProbeSet 11739960_a_at) / RFU SYPL1 (11715823_x_at) / Fold change /veh SYPL1 (11715823_x_at) / RFU IGFBP7 (11715501_s_at) / Fold change /veh IGFBP7 (11715501_s_at) / RFU REEP3 (11722064_at) / Fold change /veh REEP3 (11722064_at) / RFU IGLL1 (11728026_x_at) / Fold change /veh IGLL1 (11728026_x_at): dose or concentration left out as unconfirmed
Conditions: ProbeSet 11728443_a_at; LIST B

## Nc1ncn([C@@H]2O[C@H](CO)[C@@H](O)[C@H]2O)c(=O)n1 [azacitidine]
  Fold change vs veh, TAOK1: 0.96
